Entries after “also recorded” stand apart in the source; their conditions may differ.
Assays:
Lyn phosphorylation = experiment: Western blot of Lyn phosphorylation in RAMOS cells; assay type: cell-based, human; conditions: 24 h
Procedure: (§1) RAMOS cells were plated at 0.5 × 10^6/mL density in six-well plates. After 24 h, cells were treated with compounds at concentrations of 1, 10, and 50 μM for 24 h. The concentration of the vehicle was 0.5% in the highest test drug concentration (50 μM). LPS stimulation of RAMOS cells followed by drug treatment was performed as described previously.[19] […]
(§2) Primary antibodies used were purchased from Cell Signaling Technology, Inc., Massachusetts, USA, and included BTK (1:1000; Cat. # 3533S), phosphor-BTK (Tyr223) (1:1000; Cat # 5082S), p44/42 MAPK (ERK1/2) (1:1000; Cat # 9102S), phospho-p44/42 MAPK (ERK1/2) (Thr202/Tyr204) (1:1000; Cat # 4376S), p38 MAPK (1:1000; Cat # 9212S), phospho-p38 MAPK (Thr180/Tyr182) (1:1000; Cat # 9211S), Lyn (C13F9) (1:1000: Cat # 2796), phospho-Lyn (Tyr507) (1:1000; Cat #2731), Syk (1:1000; Cat # 2712), phospho-Syk (Tyr525/526) (C87C1) (1:1000; Cat # 2710), and GAPDH (1:4000; Cat. # 2118). […] Band intensities were quantified using NIH ImageJ Software (NIH, Bethesda, Maryland, USA).

pERK 1/2 (Thr202/Tyr204) = experiment: Western blot of pERK1/2 in LPS-stimulated RAMOS cells; assay type: cell-based, human; conditions: RAMOS cells stimulated with LPS 10 min, then 50 μM for 3 h
Procedure: as §1, §2

HCT116p53^–/– = experiment: 3 day MTS cytotoxicity assay, HCT116p53-/-; assay type: cell-based; conditions: ITK/BTK-negative, mean ± SD, n ≥ 6
Procedure: (§3) The cytotoxic activity of all the 10 compounds was tested under in vitro conditions using a 3 day standard 3-(4,5-dimethylthiazol-2yl)-5-(3-carboxymethoxyphenyl)-2-(4-sulfophenyl)-2H-tetrazolium reduction assay in 384-well plates on a robotic high-throughput screening platform (HighResBio, Boston, MA) as described elsewhere.[38] The IC50 values were calculated from the respective dose–response curves of compounds with Dotmatics (San Diego, CA, USA).

U2OS = experiment: 3 day MTS cytotoxicity assay, U2OS; assay type: cell-based; conditions: Homo sapiens, ITK/BTK-negative, mean ± SD, n ≥ 6
Procedure: as §3

[1] = Liver microsomal stability; assay type: in vitro ADME; conditions: human liver microsomes, intrinsic clearance category
Procedure: (§4) Selected compounds were assayed for human plasma and liver microsomal stability in vitro, PAMPA and cellular permeability models of gastrointestinal resorption, and the blood–brain barrier using Caco-2 and MDR1-MCDK cells as previously described.[38] Samples were analyzed in an Agilent RapidFire 300 High-Throughput Mass Spectrometry System (RF-MS; Agilent, Wakefield, MA) with subsequent detection in a Qtrap 5500 mass spectrometer (AB Sciex, Concord, Canada).

Caco-2 cells = experiment: Caco-2 permeability (gastrointestinal resorption model); assay type: in vitro ADME; conditions: for active efflux: Caco-2; for Caco-2 category: Caco-2 permeability
Procedure: as §4

[2] = as above; assay type: in vitro ADME; conditions: human, Caco-2
Procedure: as §4

RAMOS = experiment: 3 day MTS cytotoxicity assay, RAMOS; assay type: cell-based, human; conditions: for activity in RAMOS cells: BTK-high; for IC50: Homo sapiens, Ramos, BTK-positive, mean ± SD, n ≥ 6
Procedure: as §3

Syk phosphorylation = experiment: Western blot of Syk phosphorylation in RAMOS cells; assay type: cell-based, human; conditions: 24 h
Procedure: as §1, §2

pBTK (Tyr223) [3] = experiment: Western blot of pBTK in LPS-stimulated RAMOS cells; assay type: cell-based, human; conditions: RAMOS cells stimulated with LPS 10 min, then 50 μM for 3 h
Procedure: as §1, §2

HCT116 = experiment: 3 day MTS cytotoxicity assay, HCT116; assay type: cell-based; conditions: Homo sapiens, HCT-116; HCT116, ITK/BTK-negative; mean ± SD, n ≥ 6
Procedure: as §3

pBTK (Tyr223) [4] = experiment: Western blot of BTK phosphorylation in RAMOS cells; assay type: cell-based, human
Procedure: as §1, §2

[5] = Parallel artificial membrane permeability assay (PAMPA); assay type: in vitro ADME; conditions: passive diffusion
Procedure: as §4

p-p38 (Thr180/Tyr182) = experiment: Western blot of p-p38 in LPS-stimulated RAMOS cells; assay type: cell-based, human; conditions: RAMOS cells stimulated with LPS 10 min, then 50 μM for 3 h
Procedure: as §1, §2

MDR1 = experiment: MDR1-MDCK permeability (blood–brain barrier model); assay type: in vitro ADME; conditions: dog
Procedure: as §4

[6] = MDR1-MDCK permeability (blood–brain barrier model); assay type: in vitro ADME; conditions: dog
Procedure: as §4

MDR1-MDCK cells = experiment: MDR1-MDCK permeability (blood–brain barrier model); assay type: in vitro ADME
Procedure: as §4

Plasma protein binding = assay type: in vitro ADME; conditions: in vitro, read-out: plasma protein binding (% bound) (converted)
A549 = experiment: 3 day MTS cytotoxicity assay, A549; assay type: cell-based; conditions: Homo sapiens; A549, ITK/BTK-negative; mean ± SD, n ≥ 6
Procedure: as §3

JURKAT = experiment: 3 day MTS cytotoxicity assay, JURKAT; assay type: cell-based; conditions: Homo sapiens, ITK-positive, mean ± SD, n ≥ 6
Procedure: as §3

BJ = experiment: 3 day MTS cytotoxicity assay, BJ; assay type: cell-based; conditions: Homo sapiens, non-cancer fibroblasts, mean ± SD, n ≥ 6
Procedure: as §3

MRC-5 = experiment: 3 day MTS cytotoxicity assay, MRC-5; assay type: cell-based; conditions: Homo sapiens, MRC5; MRC-5, non-cancer fibroblasts; mean ± SD, n ≥ 6
Procedure: as §3

CCRF-CEM = experiment: 3 day MTS cytotoxicity assay, CCRF-CEM; assay type: cell-based; conditions: Homo sapiens, ITK-positive, mean ± SD, n ≥ 6
Procedure: as §3

Plasma stability = assay type: in vitro ADME; conditions: human plasma, in vitro
Procedure: as §4

K562 = experiment: 3 day MTS cytotoxicity assay, K562; assay type: cell-based; conditions: Homo sapiens; K562, BTK-positive; mean ± SD, n ≥ 6
Procedure: as §3

SMILES: CCCCC(=O)N1CCN(S(=O)(=O)c2ccc3c(c2)C(=C2CCCC2)C(=O)N3)CC1 [9h, 3-Cyclopentylidene-5-((4-pentanoylpiperazin-1-yl)sulfonyl)indolin-2-one]
- Lyn phosphorylation (Lyn phosphorylation): without affecting; also recorded: did not affect
- pERK 1/2 (Thr202/Tyr204) levels (pERK 1/2 (Thr202/Tyr204)): decrease
- IC50 (HCT116p53^–/–): > 50 µM
- IC50 (U2OS): > 50 µM
- microsomal stability (clearance) [1]: medium
- active efflux (Caco-2 cells): active efflux: yes
- Caco-2 category (Caco-2 cells): medium permeability; also recorded: moderate
- Papp [2]: 7.18 ×10⁻⁶ cm/s
- efflux ratio [2]: 3.34
- recovery [2]: 63.2%
- activity in RAMOS cells (RAMOS): selective cytotoxicity; also recorded: showed activity; also recorded: good anticancer activity in the micromole range
- IC50 (RAMOS): 2.75 ± 0.8 µM
- Syk phosphorylation (Syk phosphorylation): without affecting; also recorded: did not affect
- pBTK (Tyr223) activation (pBTK (Tyr223) [3]): significantly inhibited
- IC50 (HCT116): > 50 µM
- pBTK (Tyr223) levels (pBTK (Tyr223) [4]; 24 h, 50 μM): decrease was significant
- pBTK (Tyr223) levels (pBTK (Tyr223) [4]; 24 h, 1, 10, and 50 μM): selective inhibition of pBTK (Tyr223)
- PAMPA category [5]: medium
- p-p38 (Thr180/Tyr182) levels (p-p38 (Thr180/Tyr182)): decrease
- Papp (MDR1): 5.43 ×10⁻⁶ cm/s
- efflux ratio (MDR1): 13.1
- recovery [6]: 86.9%
- MDR1-MDCK CNS (−ive/+ive) (MDR1-MDCK cells): CNS –ive
- active efflux (MDR1-MDCK cells): active efflux: yes
- fraction unbound (Plasma protein binding): 0.0334
- IC50 (A549): > 50 µM
- IC50 (JURKAT): > 50 µM
- IC50 (BJ): > 50 µM
- IC50 (MRC-5): > 50 µM
- IC50 (CCRF-CEM): 46.1 ± 3.13 µM
- plasma stability (category) (Plasma stability): stable
- IC50 (K562): > 50 µM

SMILES: O=C1Nc2ccc(S(=O)(=O)N3CCN(C(=O)C4CCCCC4)CC3)cc2C1=C1CCCC1 [9b, 5-((4-(Cyclohexanecarbonyl)piperazin-1-yl)sulfonyl)-3-cyclopentylideneindolin-2-one]
- Lyn phosphorylation (Lyn phosphorylation): significantly inhibited
- IC50 (HCT116p53^–/–): > 50 µM
- IC50 (U2OS): > 50 µM
- microsomal stability (clearance) [1]: metabolized quickly by microsomes and high
- active efflux (Caco-2 cells): active efflux: yes
- Caco-2 category (Caco-2 cells): low permeability and low
- Papp [2]: 3.18 ×10⁻⁶ cm/s
- efflux ratio [2]: 2.69
- recovery [2]: 45.4%
- activity in RAMOS cells (RAMOS): selective cytotoxicity; also recorded: showed activity; also recorded: good anticancer activity in the micromole range
- IC50 (RAMOS): 3.04 ± 0.56 µM
- pBTK (Tyr223) activation (pBTK (Tyr223) [3]): no significant effect
- IC50 (HCT116): > 50 µM
- PAMPA category [5]: low
- p-p38 (Thr180/Tyr182) levels (p-p38 (Thr180/Tyr182)): only evidenced on p-p38 (Thr180/Tyr182) levels
- Papp (MDR1): 2.92 ×10⁻⁶ cm/s
- efflux ratio (MDR1): 9.3
- recovery [6]: 60.2%
- MDR1-MDCK CNS (−ive/+ive) (MDR1-MDCK cells): CNS –ive
- active efflux (MDR1-MDCK cells): active efflux: yes
- fraction unbound (Plasma protein binding): 0.114
- IC50 (A549): > 50 µM
- IC50 (JURKAT): > 50 µM
- IC50 (BJ): > 50 µM
- IC50 (MRC-5): > 50 µM
- IC50 (CCRF-CEM): 35.5 ± 7.05 µM
- plasma stability (category) (Plasma stability): stable
- IC50 (K562): > 50 µM

— publication PMC10882696, “Novel 5-Substituted Oxindole Derivatives as Bruton’s Tyrosine Kinase Inhibitors: Design, Synthesis, Docking, Molecular Dynamics Simulation, and Biological Evaluation” (ACS Omega, 2024)
